Results published in patent publication US11548900B2, “Oxazino-quinazoline and oxazino-quinoline type compound, preparation method and uses thereof” (BEIJING SCITECH-MQ PHARMACEUTICALS LIMITED, priority 2018, dated 2023).

Assays:
HER2 kinase = HER2 kinase (Homo sapiens (Human), UniProt P04626); assay: Inhibition of HER2 kinase activity (ULight-labeled PolyGT substrate); type: biochemical; details: HER2 kinase 10 nM, ATP 10 μM, 2 hours
Method in brief: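 Eleven-point 3-fold dilutions (0.042 nM–2.5 μM final, 1% DMSO) tested in duplicate against 10 nM HER2 with 100 nM ULight-labelled PolyGT and 10 μM ATP. Reaction ran 2 h at RT after 5 min pre-incubation; 665/615 nm TR-FRET ratio used to derive inhibition and IC50.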

BT474 cells = assay: Inhibition of cell proliferation, BT474 (CCK-8, 72 h); type: cell-based; details: Homo sapiens, BT-474, 72 h incubation
Method: (§1) The assay for the inhibition of cell proliferation by small molecular compounds was carried out using the method as follows:
(§2) 1. 600 μL pancreatin was added to a T75 cell culture flask, which was digested in a 37° C. incubator for about 1 min before 5 mL of DMEM complete culture solution was added, blew evenly, transferred to a 15 mL centrifuge tube, and centrifuged at 1000 rpm for 4 min;
(§3) 2. The supernatant was removed and 5 mL DMEM complete culture solution was added, blew evenly, and 10 μL cell suspension was taken and mixed with 10 μL 0.4% Trypan Blue, and counted using a cell counter;
(§4) 3. BT474 and HCC827 cell lines were seeded in 96-well plates at a cell density of 10,000 and 3000 cells/well/80 μL, respectively, and cultured overnight. Only sterile water was added to the 36 wells on the periphery of the 96-well plate without adding cells, and only the 60 wells in the center of the 96-well plate were used for cell assays and controls;
(§5) 4. Dilution of compounds: the compounds were diluted with a 3-fold dilution to make 10 concentrations in total with an initial concentration of 10 mM;
(§6) 5. 20 μL of different compounds with different concentrations were added to each well, and 20 μL of complete culture solution was added to the remaining wells. The final concentration of DMSO in each well is 0.25%;
(§7) 6. After 72 h of incubation, 10 μL CCK-8 reagent was added to each well, and incubated at 37° C. for 1-2 h; and the OD value was read at 450 nm;
(§8) 7. Cell survival rate (%)=[(As−Ab)/(Ac−Ab)]*100%
(§9) As: Assay well (medium containing cell, CCK-8, compound)
(§10) Ac: Control well (medium containing cell, CCK-8)
(§11) Ab: Blank well (CCK-8, medium without cell and compound)
(§12) 8. The value was imported into Graphpad Prism5 software for the calculation of IC50s (compound concentration at which 50% maximum survival rate is observed).

HCC827 cells = assay: Inhibition of cell proliferation, HCC827 (CCK-8, 72 h); type: cell-based; details: Homo sapiens, 72 h incubation
Method: as §1, §2, §3, §4, §5, §6, §7, §8, §9, §10, §11, §12

EGFR kinase = EGFR kinase (Homo sapiens (Human), UniProt P00533); assay: Inhibition of EGFR kinase activity (ULight-labeled JAK-1 (Tyr1023) peptide substrate); type: biochemical; details: EGFR kinase 0.35 nM, ATP 150 μM, 2 hours
Method: The assay for the inhibition of EGFR and HER2 kinase activity by small molecular compounds was carried out using the method as follows:
1) Dilution of the compounds
In a 96-well plate a, the compounds were diluted with DMSO using a 3-fold gradient dilution to form 11 concentrations, the 12th concentration is pure DMSO (as a positive control); and in a new 96-well plate b the above solutions were diluted 25 times with ultrapure water (DMSO concentration is 4%).
2) Transferring the compounds to 384-well plate
The compound solutions diluted with ultrapure water in the 96-well plate b above was transferred to the corresponding wells of a 384-well plate in duplicate.
3) Addition of 4×kinase solution: 2.5 μl of the above 4× kinase solution was taken using multichannel pipette and added to the corresponding reaction wells of the 384-well plate, mixed well and pre-reacted at room temperature for 5 minutes.
4) Addition of 2×substrate/ATP mixed solution: 5 μl of the above 2×substrate/ATP mixed solution was taken using multichannel pipette and added to the corresponding reaction wells of the 384-well plate.
5) Negative control: negative control wells were set in the 384-well plate, and 2.5 μl 4×substrate, 2.5 μl 4×enzyme solution, 2.5 μl 1×Kinase Assay Buffer and 2.5 μl ultrapure water containing 4% DMSO were added to each well.
6) Mixed by centrifugation and kept at room temperature for 2 hours in the dark.
7) Termination of the enzymatic reaction:
5 μl of the above 4× stop solution was pipetted to the corresponding wells of the 384-well plate, centrifuged and mixed, and reacted at room temperature for 5 minutes.
5 μl of the above 4× detection solution was pipetted into the corresponding wells of the 384-well plate, centrifuged and mixed, and reacted at room temperature for 1 hour.
9) The 384-well plate was placed into a microplate reader and the signal was detected using the corresponding program.
10) IC50 analysis: Well reading value=10000*EU665 value/EU615 value Inhibition rate=(reading value of positive control well−reading value of experimental well)/(reading value of positive control well−reading value of negative control well)*100% Corresponding IC50s can be calculated by entering the drug concentrations and the corresponding inhibition rates into GraphPad Prism 5.
Conditions of experiment for screening EGFR kinase inhibitory molecules:
The final concentration of EGFR kinase in the reaction system is 0.35 nM, and the final concentration of ATP is 150 μM, the final concentration of substrate ULight™-labeled JAK-1 (Tyr1023) Peptide is 100 nM, and the enzymatic reaction time is 2 hours.
The maximum final concentration of the compound in the reaction system is 2.5 μM, 11 concentrations were made with a 3-fold gradient dilution, and the minimal final concentration is 0.042 nM. The final concentration of DMSO is 1%.

EGFR kinase, sequence (P00533 25-1210): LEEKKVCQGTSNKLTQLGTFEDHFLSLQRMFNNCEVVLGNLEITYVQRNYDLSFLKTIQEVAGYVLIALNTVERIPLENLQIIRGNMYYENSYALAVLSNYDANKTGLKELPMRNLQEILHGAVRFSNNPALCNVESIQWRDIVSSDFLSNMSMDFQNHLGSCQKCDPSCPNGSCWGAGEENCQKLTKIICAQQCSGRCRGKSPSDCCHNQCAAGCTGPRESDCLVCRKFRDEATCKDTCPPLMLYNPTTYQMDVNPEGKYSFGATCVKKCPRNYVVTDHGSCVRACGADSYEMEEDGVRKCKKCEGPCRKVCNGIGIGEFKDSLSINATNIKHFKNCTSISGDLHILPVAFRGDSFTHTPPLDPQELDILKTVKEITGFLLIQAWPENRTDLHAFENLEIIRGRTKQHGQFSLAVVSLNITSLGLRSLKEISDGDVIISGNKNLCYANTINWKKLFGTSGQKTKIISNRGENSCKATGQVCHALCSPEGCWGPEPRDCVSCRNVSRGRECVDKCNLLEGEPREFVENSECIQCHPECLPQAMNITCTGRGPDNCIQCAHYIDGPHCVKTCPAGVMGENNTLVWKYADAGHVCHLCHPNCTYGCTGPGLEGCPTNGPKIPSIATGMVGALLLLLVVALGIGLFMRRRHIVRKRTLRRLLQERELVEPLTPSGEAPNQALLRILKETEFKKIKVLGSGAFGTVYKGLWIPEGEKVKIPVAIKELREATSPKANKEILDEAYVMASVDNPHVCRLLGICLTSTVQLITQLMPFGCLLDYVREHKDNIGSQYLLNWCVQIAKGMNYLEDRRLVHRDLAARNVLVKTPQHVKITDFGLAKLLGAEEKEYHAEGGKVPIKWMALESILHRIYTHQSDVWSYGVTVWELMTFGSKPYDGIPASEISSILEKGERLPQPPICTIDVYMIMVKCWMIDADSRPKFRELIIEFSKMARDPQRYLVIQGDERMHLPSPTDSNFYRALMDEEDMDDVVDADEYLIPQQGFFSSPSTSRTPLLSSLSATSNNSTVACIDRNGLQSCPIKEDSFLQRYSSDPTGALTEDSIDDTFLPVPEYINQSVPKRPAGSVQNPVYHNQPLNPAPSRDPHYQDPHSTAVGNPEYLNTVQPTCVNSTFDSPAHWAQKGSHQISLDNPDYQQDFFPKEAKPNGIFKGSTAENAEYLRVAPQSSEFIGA
HER2 kinase, sequence (P04626 23-1255): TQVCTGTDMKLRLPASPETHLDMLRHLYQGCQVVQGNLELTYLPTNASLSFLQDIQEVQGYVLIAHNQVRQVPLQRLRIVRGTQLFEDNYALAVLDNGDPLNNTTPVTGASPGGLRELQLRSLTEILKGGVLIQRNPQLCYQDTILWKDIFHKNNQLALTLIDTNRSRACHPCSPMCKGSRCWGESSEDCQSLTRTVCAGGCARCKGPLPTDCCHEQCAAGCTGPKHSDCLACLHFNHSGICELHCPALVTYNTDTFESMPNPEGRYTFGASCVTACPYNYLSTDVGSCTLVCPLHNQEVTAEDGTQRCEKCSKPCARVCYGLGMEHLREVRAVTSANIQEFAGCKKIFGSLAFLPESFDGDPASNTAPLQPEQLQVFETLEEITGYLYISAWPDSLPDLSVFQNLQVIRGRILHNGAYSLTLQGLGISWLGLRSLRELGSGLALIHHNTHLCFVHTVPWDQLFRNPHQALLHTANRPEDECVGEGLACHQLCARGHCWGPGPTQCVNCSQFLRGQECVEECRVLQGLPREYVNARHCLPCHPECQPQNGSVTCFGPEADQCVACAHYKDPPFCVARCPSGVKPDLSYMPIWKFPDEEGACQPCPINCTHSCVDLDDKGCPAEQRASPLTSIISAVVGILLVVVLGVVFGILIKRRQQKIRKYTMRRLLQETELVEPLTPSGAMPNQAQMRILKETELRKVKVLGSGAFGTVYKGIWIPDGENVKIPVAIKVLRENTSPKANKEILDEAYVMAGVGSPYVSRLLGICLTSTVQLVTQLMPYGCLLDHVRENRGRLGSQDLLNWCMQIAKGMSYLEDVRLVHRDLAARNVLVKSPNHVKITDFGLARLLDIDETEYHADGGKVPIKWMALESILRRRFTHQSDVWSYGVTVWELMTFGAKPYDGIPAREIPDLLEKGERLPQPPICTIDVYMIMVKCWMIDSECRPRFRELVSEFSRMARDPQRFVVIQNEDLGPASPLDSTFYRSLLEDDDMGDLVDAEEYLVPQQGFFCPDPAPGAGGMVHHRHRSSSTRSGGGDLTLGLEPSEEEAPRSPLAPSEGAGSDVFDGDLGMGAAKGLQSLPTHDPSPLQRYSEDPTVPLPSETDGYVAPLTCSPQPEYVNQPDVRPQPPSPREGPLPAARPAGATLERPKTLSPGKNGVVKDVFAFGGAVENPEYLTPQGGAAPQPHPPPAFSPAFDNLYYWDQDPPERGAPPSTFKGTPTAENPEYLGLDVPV

SMILES | IC50 (HER2 kinase) [nM] | IC50 (BT474 cells) [nM] | IC50 (HCC827 cells) [nM] | IC50 (EGFR kinase) [nM]
CN1CCC[C@H]1/C=C/C(=O)N1CCOc2c1ccc1ncnc(Nc3ccc(OCc4ccccn4)c(Cl)c3)c21 [Example 112, (S,E)-1-(10-((3-chloro-4-(pyridin-2-ylmethoxy)phenyl)amino)-2,3-dihydro-4H-[1,4]oxazino[2,3-f]quinazolin-4-yl)-3-(1-methylpyrrolidin-2-yl)prop-2-en-1-one] | ≤ 50 | ≤ 50 | 50 to 500 | –
CC(C)NC/C=C/C(=O)N1CCOc2c1ccc1ncnc(Nc3ccc(OCc4ccccn4)c(Cl)c3)c21 [Example 102, (E)-1-(10-((3-chloro-4-(pyridin-2-ylmethoxy)phenyl)amino)-2,3-dihydro-4H-[1,4]oxazino[2,3-f]quinazolin-4-yl)-4-(isopropylamino)but-2-en-1-one] | ≤ 50 | ≤ 50 | 50 to 500 | –
Cc1ccc(COc2ccc(Nc3ncnc4ccc5c(c34)OCCN5C(=O)/C=C/CN(C)C)cc2)cc1 [Example 88, (E)-4-(dimethylamino)-1-(10-((4-((4-methylbenzyl)oxy)phenyl)amino)-2,3-dihydro-4H-[1,4]oxazino[2,3-f]quinazolin-4-yl)but-2-en-1-one] | ≤ 50 | ≤ 50 | 500 to 5000 | –
CN(C)C/C=C/C(=O)N1CCOc2c1ccc1ncnc(Nc3ccc(OCc4ccc(Cl)cc4)cc3)c21 [Example 87, (E)-4-(dimethylamino)-1-(10-((4-((4-chlorobenzyl)oxy)phenyl)amino)-2,3-dihydro-4H-[1,4]oxazino[2,3-f]quinazolin-4-yl)but-2-en-1-one] | ≤ 50 | 50 to 500 | 500 to 5000 | –
CC1(O)CCN(C/C=C/C(=O)N2CCOc3c2ccc2ncnc(Nc4ccc(OCc5ccccn5)c(Cl)c4)c32)CC1 [Example 116, (E)-1-(10-((3-chloro-4-(pyridin-2-ylmethoxy)phenyl)amino)-2,3-dihydro-4H-[1,4]oxazino[2,3-f]quinazolin-4-yl)-4-(4-hydroxyl-4-methylpiperidin-1-yl)but-2-en-1-one] | ≤ 50 | ≤ 50 | 50 to 500 | –
Cc1cccc(COc2ccc(Nc3ncnc4ccc5c(c34)OCCN5C(=O)/C=C/CN(C)C)cc2)c1 [Example 84, (E)-4-(dimethylamino)-1-(10-((4-((3-methylbenzyl)oxy)phenyl)amino)-2,3-dihydro-4H-[1,4]oxazino[2,3-f]quinazolin-4-yl)but-2-en-1-one] | ≤ 50 | ≤ 50 | 50 to 500 | –
COc1ccccc1COc1ccc(Nc2ncnc3ccc4c(c23)OCCN4C(=O)/C=C/CN(C)C)cc1 [Example 82, (E)-4-(dimethylamino)-1-(10-((4-((2-methoxybenzyl)oxy)phenyl)amino)-2,3-dihydro-4H-[1,4]oxazino[2,3-f]quinazolin-4-yl)but-2-en-1-one] | ≤ 50 | ≤ 50 | 500 to 5000 | –
O=C(/C=C/CNC1CC1)N1CCOc2c1ccc1ncnc(Nc3ccc(OCc4ccccn4)c(Cl)c3)c21 [Example 101, (E)-1-(10-((3-chloro-4-(pyridin-2-ylmethoxy)phenyl)amino)-2,3-dihydro-4H-[1,4]oxazino[2,3-f]quinazolin-4-yl)-4-(cyclopropylamino)but-2-en-1-one] | 50 to 500 | – | 500 to 5000 | –
O=C(/C=C/CN1CCCCC1)N1CCOc2c1ccc1ncnc(Nc3ccc(Oc4ccn5ncnc5c4)c(Cl)c3)c21 [Example 128, (E)-1-(10-((4-([1,2,4]triazolo[1,5-a]pyridin-7-yloxy)-3-chlorophenyl)amino)-2,3-dihydro-4H-[1,4]oxazino[2,3-f]quinazolin-4-yl)-4-(piperidin-1-yl)but-2-en-1-one] | ≤ 50 | ≤ 50 | – | 50 to 500
Cc1cc(Nc2ncnc3ccc4c(c23)OCCN4C(=O)/C=C/CN2CCCCC2)ccc1Oc1ccn2ncnc2c1 [Example 134, (E)-1-(10-((4-([1,2,4]triazolo[1,5-a]pyridin-7-yloxy)-3-methylphenyl)amino)-2,3-dihydro-4H-[1,4]oxazino[2,3-f]quinazolin-4-yl)-4-(piperidin-1-yl)but-2-en-1-one] | ≤ 50 | ≤ 50 | – | 50 to 500
Cc1cc(Nc2ncnc3ccc4c(c23)OCCN4C(=O)/C=C/CN(C)C2CCC2)ccc1Oc1ccn2ncnc2c1 [Example 135, (E)-1-(10-((4-([1,2,4]triazolo[1,5-a]pyridin-7-yloxy)-3-methylphenyl)amino)-2,3-dihydro-4H-[1,4]oxazino[2,3-f]quinazolin-4-yl)-4-(cyclobutyl(methyl)amino)but-2-en-1-one] | ≤ 50 | ≤ 50 | – | 50 to 500
CN1CCN(C/C=C/C(=O)N2CCOc3c2ccc2ncnc(Nc4ccc(Oc5ccn6ncnc6c5)c(Cl)c4)c32)CC1 [Example 126, (E)-1-(10-((4-([1,2,4]triazolo[1,5-a]pyridin-7-yloxy)-3-chlorophenyl)amino)-2,3-dihydro-4H-[1,4]oxazino[2,3-f]quinazolin-4-yl)-4-(4-methylpiperazin-1-yl)but-2-en-1-one] | ≤ 50 | ≤ 50 | – | ≤ 50
CC(C)N(C)C/C=C/C(=O)N1CCOc2c1ccc1ncnc(Nc3ccc(Oc4ccn5ncnc5c4)c(Cl)c3)c21 [Example 127, (E)-1-(10-((4-([1,2,4]triazolo[1,5-a]pyridin-7-yloxy)-3-chlorophenyl)amino)-2,3-dihydro-4H-[1,4]oxazino[2,3-f]quinazolin-4-yl)-4-(isopropyl(methyl)amino)but-2-en-1-one] | ≤ 50 | ≤ 50 | – | 50 to 500
COCCN(C)C/C=C/C(=O)N1CCOc2c1ccc1ncnc(Nc3ccc(Oc4ccn5ncnc5c4)c(C)c3)c21 [Example 136, (E)-1-(10-((4-([1,2,4]triazolo[1,5-a]pyridin-7-yloxy)-3-methylphenyl)amino)-2,3-dihydro-4H-[1,4]oxazino[2,3-f]quinazolin-4-yl)-4-((2-methoxyethyl)(methyl)amino)but-2-en-1-one] | ≤ 50 | ≤ 50 | – | 50 to 500
CN(C/C=C/C(=O)N1CCOc2c1ccc1ncnc(Nc3ccc(Oc4ccn5ncnc5c4)c(Cl)c3)c21)C1CCC1 [Example 129, (E)-1-(10-((4-([1,2,4]triazolo[1,5-a]pyridin-7-yloxy)-3-chlorophenyl)amino)-2,3-dihydro-4H-[1,4]oxazino[2,3-f]quinazolin-4-yl)-4-(cyclobutyl(methyl)amino)but-2-en-1-one] | ≤ 50 | ≤ 50 | – | 50 to 500
